ChEMBL document CHEMBL5029171, “Dynamics of Post-Translational Modification Inspires Drug Design in the Kinase Family” (J Med Chem, 2021)

Assays:
[1] = molecular target: Proto-oncogene tyrosine-protein kinase Src (Homo sapiens) (UniProt P12931); experiment: Inhibition of human recombinant flag-tagged c-Src protein (86 to 536 residues) catalytic activity expressed in Escherichia coli BL21 (DE3) cells at 50 uM using biotinylated TK-substrate peptide as substrate preincubated for 1 hr followed by substrate addition and measured after 1 hr by HTRF assay relative to control; conditions: time 2.0 hrs
Chain of Proto-oncogene tyrosine-protein kinase Src (Homo sapiens) (P12931 2-536 limits assumed): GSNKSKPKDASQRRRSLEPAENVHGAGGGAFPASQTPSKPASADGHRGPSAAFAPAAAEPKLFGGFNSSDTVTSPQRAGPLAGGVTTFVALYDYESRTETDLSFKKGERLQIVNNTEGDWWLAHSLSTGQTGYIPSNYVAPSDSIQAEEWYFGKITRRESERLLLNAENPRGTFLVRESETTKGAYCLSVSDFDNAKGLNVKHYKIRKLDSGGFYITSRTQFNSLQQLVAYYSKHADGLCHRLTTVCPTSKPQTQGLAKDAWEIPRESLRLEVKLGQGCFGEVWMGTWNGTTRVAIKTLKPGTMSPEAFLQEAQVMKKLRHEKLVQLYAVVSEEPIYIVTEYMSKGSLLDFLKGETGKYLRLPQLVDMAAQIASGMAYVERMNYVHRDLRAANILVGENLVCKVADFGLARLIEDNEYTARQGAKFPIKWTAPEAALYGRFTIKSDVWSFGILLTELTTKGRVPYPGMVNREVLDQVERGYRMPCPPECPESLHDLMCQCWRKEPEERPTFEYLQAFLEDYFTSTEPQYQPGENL

[2] = molecular target: Proto-oncogene tyrosine-protein kinase Src (Homo sapiens) (UniProt P12931); experiment: Binding affinity to human recombinant flag-tag c-Src protein (86 to 536 residues) expressed in Escherichia coli BL21 (DE3) cells assessed as change in melting temperature at 1:5 ratio incubated for 25 mins by protein thermal shift assay
[3] = molecular target: Proto-oncogene tyrosine-protein kinase Src (Homo sapiens) (UniProt P12931); experiment: Binding affinity to human recombinant flag-tag c-Src protein (86 to 536 residues) expressed in Escherichia coli BL21 (DE3) cells assessed as change in melting temperature at 1:10 ratio incubated for 25 mins by protein thermal shift assay
[4] = molecular target: Proto-oncogene tyrosine-protein kinase Src (Homo sapiens) (UniProt P12931); experiment: Binding affinity to human recombinant flag-tag c-Src protein (86 to 536 residues) expressed in Escherichia coli BL21 (DE3) cells assessed as change in melting temperature at 1:20 ratio incubated for 25 mins by protein thermal shift assay

inhibition [1] [%]	ΔTm [2] [°C]	ΔTm [3] [°C]	ΔTm [4] [°C]	SMILES
> 60				O=C(NC1CCCC1)C(c1ccc(Cl)cc1)N(Cc1cccs1)C(=O)CCl (stereo unspecified)
> 60	1.5	2.56	3.3	O=C(NC1CCCC1)C(c1ccc(F)cc1)N(C(=O)CCl)C1CC1 (stereo unspecified)
> 60				COc1ccc(C(C(=O)NC2CCCC2)N(CCC2=CCCCC2)C(=O)CCl)cc1 (stereo unspecified)
